Data on 19 compounds can be found in ChEMBL document CHEMBL1145851, “Novel substituted pyridinyl imidazoles as potent anticytokine agents with low activity against hepatic cytochrome P450 enzymes” (J Med Chem, 2003).

The first data set concerns the target T1, MAP kinase p38 (Homo sapiens, UniProt O15264+Q15759+Q16539+P53778). Kind of data set: Inhibitory activity against mitogen-activated protein kinase p38 at 10 e-4 to 10 e-8 M concentration. The class given is protein assay.
On to `CC(Nc1cc(-c2[nH]c(SCc3ccc([S+](C)[O-])cc3)nc2-c2ccc(F)cc2)ccn1)c1ccccc1` (stereo not given), for which the IC50 came out at 270 nM.

Compound `CSc1nc(-c2ccc(F)cc2)c(-c2ccnc(OC(C)C)c2)[nH]1` yielded an IC50 of 560 nM.

On to `CSc1nc(-c2ccc(F)cc2)c(-c2ccnc(NC(C)=O)c2)n1C1CC(C)(C)NC(C)(C)C1`, for which the IC50 worked out at 340 nM. This IC50 is about 1.6-fold lower than that of the compound before.

`CSc1nc(-c2ccc(F)cc2)c(-c2ccnc(F)c2)[nH]1` returned an IC50 of 3800 nM.

`CSc1nc(-c2ccc(F)cc2)c(-c2ccnc(NCc3ccccc3)c2)n1C` registered an IC50 of 930 nM.

`CSc1nc(-c2ccc(F)cc2)c(-c2ccnc(NCc3ccc(C)cc3)c2)[nH]1` had an IC50 of 830 nM.

For `CSc1nc(-c2ccc(F)cc2)c(-c2ccncc2)n1C`, the IC50 came to 2200 nM.

`CCCn1c(SC)nc(-c2ccc(F)cc2)c1-c1ccncc1`: the IC50 was 2200 nM.

Turning to `CCNc1cc(-c2c(-c3ccc(F)cc3)nc(SC)n2C2CC(C)(C)NC(C)(C)C2)ccn1`, the IC50 was determined as 220 nM.

With `CSc1nc(-c2ccc(F)cc2)c(-c2ccnc(NCc3ccccc3)c2)[nH]1`, the IC50 amounted to 650 nM.

As for `CSc1nc(-c2ccc(F)cc2)c(-c2ccnc(NCc3ccc(Cl)cc3)c2)[nH]1`, the IC50 was found to be 950 nM.

Compound `CCNc1cc(-c2c(-c3ccc(F)cc3)nc(SC)n2C)ccn1` registered an IC50 of 700 nM.

`CSc1nc(-c2ccnc(NC(C)c3ccccc3)c2)c(-c2ccc(F)cc2)n1C` (stereo not given) had an IC50 of 27000 nM. Compared with the last compound, the IC50 is about 39-fold higher.

Take `CC(Nc1cc(-c2[nH]c(SCc3ccccc3)nc2-c2ccc(F)cc2)ccn1)c1ccccc1` (stereo not given): the IC50 worked out at 380 nM.

`CSc1nc(-c2ccc(F)cc2)c(-c2ccnc(NCc3ccc(Cl)c(Cl)c3)c2)[nH]1` yielded an IC50 of 700 nM.

`Fc1ccc(-c2nc(SCc3ccccc3)[nH]c2-c2ccnc(F)c2)cc1` had an IC50 of 4200 nM.

`CSc1nc(-c2ccc(F)cc2)c(-c2ccnc(N)c2)n1C` returned an IC50 of 2300 nM. Against the preceding compound, the IC50 is about 1.8-fold lower.

Compound `C[S+]([O-])c1ccc(CSc2nc(-c3ccc(F)cc3)c(-c3ccnc(F)c3)[nH]2)cc1` (stereo not given) gave an IC50 of 9300 nM. Compared with the last compound, the IC50 is about 4-fold higher.

Turning to `C[S+]([O-])c1ccc(CSc2nc(-c3ccc(F)cc3)c(-c3ccnc(NCc4ccccc4)c3)[nH]2)cc1` (stereo not given), the IC50 came out at 1450 nM.

A further data set has as its target T1, MAP kinase p38. Description: Inhibition of p38-related TNF-alpha release by whole blood cells at 10 e-4 to 10 e-8 M. It is filed as functional.
The compound `CSc1nc(-c2ccc(F)cc2)c(-c2ccnc(OC(C)C)c2)[nH]1` yielded an IC50 of 7200 nM.

Compound `CSc1nc(-c2ccc(F)cc2)c(-c2ccnc(NC(C)=O)c2)n1C1CC(C)(C)NC(C)(C)C1` returned an IC50 of 5400 nM.

Consider `CSc1nc(-c2ccc(F)cc2)c(-c2ccncc2)n1C`, for which the IC50 came to 5100 nM.

In turn, `CCNc1cc(-c2c(-c3ccc(F)cc3)nc(SC)n2C2CC(C)(C)NC(C)(C)C2)ccn1` displayed an IC50 of 11000 nM.

In turn, `CCNc1cc(-c2c(-c3ccc(F)cc3)nc(SC)n2C)ccn1` displayed an IC50 of 5000 nM.

The next data set has as its target T1, MAP kinase p38. Description: Inhibitory activity against TNF-alpha release in PBM cells. It is filed as functional, cell-based.
In the case of `CC(Nc1cc(-c2[nH]c(SCc3ccc([S+](C)[O-])cc3)nc2-c2ccc(F)cc2)ccn1)c1ccccc1` (stereo not given), the IC50 is 910 nM. This counts as sub-micromolar.

With `CSc1nc(-c2ccc(F)cc2)c(-c2ccnc(OC(C)C)c2)[nH]1`, the IC50 came out at 400 nM.

`CSc1nc(-c2ccc(F)cc2)c(-c2ccnc(NC(C)=O)c2)n1C1CC(C)(C)NC(C)(C)C1` had an IC50 of 4500 nM.

Consider `CSc1nc(-c2ccc(F)cc2)c(-c2ccnc(F)c2)[nH]1`, for which the IC50 came out at 2800 nM.

The compound `CSc1nc(-c2ccc(F)cc2)c(-c2ccnc(NCc3ccccc3)c2)n1C` yielded an IC50 of 580 nM.

`CSc1nc(-c2ccc(F)cc2)c(-c2ccnc(NCc3ccc(C)cc3)c2)[nH]1`: the IC50 was found to be 670 nM.

In the case of `CSc1nc(-c2ccc(F)cc2)c(-c2ccncc2)n1C`, the IC50 was determined as 2200 nM.

`CCCn1c(SC)nc(-c2ccc(F)cc2)c1-c1ccncc1` showed an IC50 of 1300 nM. This IC50 is about 1.7-fold lower than that of the compound before.

`CCNc1cc(-c2c(-c3ccc(F)cc3)nc(SC)n2C2CC(C)(C)NC(C)(C)C2)ccn1` showed an IC50 of 2900 nM.

Compound `CSc1nc(-c2ccc(F)cc2)c(-c2ccnc(NCc3ccccc3)c2)[nH]1` gave an IC50 of 630 nM.

Compound `CSc1nc(-c2ccc(F)cc2)c(-c2ccnc(NCc3ccc(Cl)cc3)c2)[nH]1` yielded an IC50 of 500 nM.

Regarding `CCNc1cc(-c2c(-c3ccc(F)cc3)nc(SC)n2C)ccn1`, the IC50 is 600 nM. This IC50 and that of the compound before are within 1.5-fold of each other.

As to `CC(Nc1cc(-c2[nH]c(SCc3ccccc3)nc2-c2ccc(F)cc2)ccn1)c1ccccc1` (stereo not given), the IC50 stood at 2700 nM.

The compound `CSc1nc(-c2ccc(F)cc2)c(-c2ccnc(NCc3ccc(Cl)c(Cl)c3)c2)[nH]1` displayed an IC50 of 720 nM.

Compound `Fc1ccc(-c2nc(SCc3ccccc3)[nH]c2-c2ccnc(F)c2)cc1` showed a concentration for half-maximal inhibition (IC50) of 40500 nM.

`CSc1nc(-c2ccc(F)cc2)c(-c2ccnc(N)c2)n1C` returned an IC50 of 3200 nM.

Consider `C[S+]([O-])c1ccc(CSc2nc(-c3ccc(F)cc3)c(-c3ccnc(F)c3)[nH]2)cc1` (stereo not given), for which the IC50 came to 6900 nM.

In the case of `C[S+]([O-])c1ccc(CSc2nc(-c3ccc(F)cc3)c(-c3ccnc(NCc4ccccc4)c3)[nH]2)cc1` (stereo not given), the IC50 was 2000 nM.

The target in the next data set is T2, CYP1A2 (Homo sapiens, UniProt P05177).
T2 sequence (P05177 whole entry): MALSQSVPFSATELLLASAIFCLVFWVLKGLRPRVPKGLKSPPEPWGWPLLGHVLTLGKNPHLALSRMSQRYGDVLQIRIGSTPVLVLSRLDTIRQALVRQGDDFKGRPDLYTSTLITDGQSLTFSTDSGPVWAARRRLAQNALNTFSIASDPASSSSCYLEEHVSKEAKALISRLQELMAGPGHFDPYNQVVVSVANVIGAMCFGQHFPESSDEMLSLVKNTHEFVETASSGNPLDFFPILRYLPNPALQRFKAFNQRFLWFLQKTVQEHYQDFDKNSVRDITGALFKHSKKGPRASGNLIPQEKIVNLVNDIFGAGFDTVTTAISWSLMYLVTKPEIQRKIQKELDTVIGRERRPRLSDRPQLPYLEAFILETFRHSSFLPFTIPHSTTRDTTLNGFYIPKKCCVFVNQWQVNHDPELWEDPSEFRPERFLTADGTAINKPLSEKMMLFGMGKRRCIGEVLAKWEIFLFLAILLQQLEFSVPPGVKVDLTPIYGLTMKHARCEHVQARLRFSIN
Description: Inhibition of Cytochrome P450 1A2 at 10 uM. The class given is ADME.
`CSc1nc(-c2ccc(F)cc2)c(-c2ccnc(OC(C)C)c2)[nH]1` returned an inhibition at 10 µM of 83.2%.

In turn, `CSc1nc(-c2ccc(F)cc2)c(-c2ccnc(NC(C)=O)c2)n1C1CC(C)(C)NC(C)(C)C1` came in with an inhibition at 10 µM of under 0%.

The target in a further data set is T1, MAP kinase p38. Kind of data set: Inhibitory activity against induction of IL-1-beta release in PBMCs. The class given is functional.
`CC(Nc1cc(-c2[nH]c(SCc3ccc([S+](C)[O-])cc3)nc2-c2ccc(F)cc2)ccn1)c1ccccc1` (stereo not given) showed an IC50 of 40 nM.

As for `CSc1nc(-c2ccc(F)cc2)c(-c2ccnc(OC(C)C)c2)[nH]1`, the IC50 is 47 nM.

The compound `CSc1nc(-c2ccc(F)cc2)c(-c2ccnc(NC(C)=O)c2)n1C1CC(C)(C)NC(C)(C)C1` gave an IC50 of 460 nM.

As to `CSc1nc(-c2ccc(F)cc2)c(-c2ccnc(F)c2)[nH]1`, the IC50 worked out at 300 nM.

`CSc1nc(-c2ccc(F)cc2)c(-c2ccnc(NCc3ccccc3)c2)n1C`: the IC50 is 82 nM.

For the compound `CSc1nc(-c2ccc(F)cc2)c(-c2ccnc(NCc3ccc(C)cc3)c2)[nH]1`, the IC50 worked out at 85 nM.

On to `CSc1nc(-c2ccc(F)cc2)c(-c2ccncc2)n1C`, for which the IC50 came out at 450 nM. This IC50 is about 5.3-fold higher than that of the compound before.

Regarding `CCCn1c(SC)nc(-c2ccc(F)cc2)c1-c1ccncc1`, the IC50 is 360 nM.

For the compound `CCNc1cc(-c2c(-c3ccc(F)cc3)nc(SC)n2C2CC(C)(C)NC(C)(C)C2)ccn1`, the IC50 turned out to be 620 nM.

The compound `CSc1nc(-c2ccc(F)cc2)c(-c2ccnc(NCc3ccccc3)c2)[nH]1` had an IC50 of 108 nM.

As to `CSc1nc(-c2ccc(F)cc2)c(-c2ccnc(NCc3ccc(Cl)cc3)c2)[nH]1`, the IC50 was 150 nM.

The compound `CCNc1cc(-c2c(-c3ccc(F)cc3)nc(SC)n2C)ccn1` displayed an IC50 of 71 nM. This IC50 lies about 2.1-fold lower than the previous one.

In turn, `CC(Nc1cc(-c2[nH]c(SCc3ccccc3)nc2-c2ccc(F)cc2)ccn1)c1ccccc1` (stereo not given) registered an IC50 of 45 nM.

In turn, `CSc1nc(-c2ccc(F)cc2)c(-c2ccnc(NCc3ccc(Cl)c(Cl)c3)c2)[nH]1` had an IC50 of 230 nM.

`Fc1ccc(-c2nc(SCc3ccccc3)[nH]c2-c2ccnc(F)c2)cc1` had an IC50 of 2900 nM.

For the compound `CSc1nc(-c2ccc(F)cc2)c(-c2ccnc(N)c2)n1C`, the IC50 was 270 nM.

In the case of `C[S+]([O-])c1ccc(CSc2nc(-c3ccc(F)cc3)c(-c3ccnc(F)c3)[nH]2)cc1` (stereo not given), the IC50 amounted to 2450 nM.

`C[S+]([O-])c1ccc(CSc2nc(-c3ccc(F)cc3)c(-c3ccnc(NCc4ccccc4)c3)[nH]2)cc1` (stereo not given): the IC50 is 470 nM.

The next data set concerns the target T1, MAP kinase p38. Description: Inhibition of p38-related IL1-beta release by whole blood cells at 10 e-4 to 10 e-8 M. It is filed as functional.
`CSc1nc(-c2ccc(F)cc2)c(-c2ccnc(OC(C)C)c2)[nH]1`: the IC50 was 2200 nM.

The compound `CSc1nc(-c2ccc(F)cc2)c(-c2ccnc(NC(C)=O)c2)n1C1CC(C)(C)NC(C)(C)C1` came in with an IC50 of 2150 nM.

For `CSc1nc(-c2ccc(F)cc2)c(-c2ccncc2)n1C`, the IC50 was found to be 1080 nM.

In turn, `CCNc1cc(-c2c(-c3ccc(F)cc3)nc(SC)n2C2CC(C)(C)NC(C)(C)C2)ccn1` came in with an IC50 of 2700 nM.

`CCNc1cc(-c2c(-c3ccc(F)cc3)nc(SC)n2C)ccn1` had an IC50 of 2000 nM.

A further data set deals with CYP2C9 (Homo sapiens, UniProt P11712). Description: Inhibition of Cytochrome P450 2C9 at 10 uM. The class given is ADME.
CYP2C9, sequence (P11712 whole entry): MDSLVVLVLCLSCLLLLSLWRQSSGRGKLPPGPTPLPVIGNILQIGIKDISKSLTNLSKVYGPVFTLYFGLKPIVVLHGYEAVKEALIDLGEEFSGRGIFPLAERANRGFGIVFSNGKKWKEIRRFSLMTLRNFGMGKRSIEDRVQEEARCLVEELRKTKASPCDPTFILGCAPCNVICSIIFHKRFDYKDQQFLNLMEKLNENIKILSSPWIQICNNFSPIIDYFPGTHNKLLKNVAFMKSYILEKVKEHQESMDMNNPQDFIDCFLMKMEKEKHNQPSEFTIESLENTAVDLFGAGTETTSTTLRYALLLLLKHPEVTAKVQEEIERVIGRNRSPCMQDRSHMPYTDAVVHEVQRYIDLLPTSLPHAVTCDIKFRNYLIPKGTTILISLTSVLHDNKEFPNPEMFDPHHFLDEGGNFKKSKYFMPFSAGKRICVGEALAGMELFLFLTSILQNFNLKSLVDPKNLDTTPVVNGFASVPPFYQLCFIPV
As for `CSc1nc(-c2ccc(F)cc2)c(-c2ccnc(OC(C)C)c2)[nH]1`, the inhibition at 10 µM is 67.5%.

`CSc1nc(-c2ccc(F)cc2)c(-c2ccnc(NC(C)=O)c2)n1C1CC(C)(C)NC(C)(C)C1` returned an inhibition at 10 µM of 2.6%.

For the next data set, the target named is CYP3A4 (Homo sapiens, UniProt P08684). Description: Inhibition of Cytochrome P450 3A4 at 10 uM. It is filed as ADME.
CYP3A4, sequence (P08684 whole entry): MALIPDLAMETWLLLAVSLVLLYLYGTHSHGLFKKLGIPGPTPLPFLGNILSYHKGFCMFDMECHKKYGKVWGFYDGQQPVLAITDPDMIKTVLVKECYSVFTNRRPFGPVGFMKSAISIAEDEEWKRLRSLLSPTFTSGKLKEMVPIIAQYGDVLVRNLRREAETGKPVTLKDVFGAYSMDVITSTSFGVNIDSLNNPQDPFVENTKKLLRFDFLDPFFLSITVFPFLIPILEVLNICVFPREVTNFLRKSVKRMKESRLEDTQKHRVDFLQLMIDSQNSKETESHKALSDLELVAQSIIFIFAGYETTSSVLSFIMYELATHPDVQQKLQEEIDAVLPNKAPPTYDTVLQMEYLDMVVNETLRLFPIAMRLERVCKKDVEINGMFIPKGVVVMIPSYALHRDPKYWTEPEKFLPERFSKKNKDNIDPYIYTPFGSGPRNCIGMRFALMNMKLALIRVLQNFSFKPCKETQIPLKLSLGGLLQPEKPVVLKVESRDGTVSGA
Regarding `CSc1nc(-c2ccc(F)cc2)c(-c2ccnc(OC(C)C)c2)[nH]1`, the inhibition at 10 µM was found to be 49.6%.

With `CSc1nc(-c2ccc(F)cc2)c(-c2ccnc(NC(C)=O)c2)n1C1CC(C)(C)NC(C)(C)C1`, the inhibition at 10 µM came to 79%.

In a further data set the target is CYP2D6 (Homo sapiens, UniProt P10635). Description: Inhibition of Cytochrome P450 2D6 at 10 uM. It is filed as ADME.
CYP2D6, sequence (P10635 whole entry): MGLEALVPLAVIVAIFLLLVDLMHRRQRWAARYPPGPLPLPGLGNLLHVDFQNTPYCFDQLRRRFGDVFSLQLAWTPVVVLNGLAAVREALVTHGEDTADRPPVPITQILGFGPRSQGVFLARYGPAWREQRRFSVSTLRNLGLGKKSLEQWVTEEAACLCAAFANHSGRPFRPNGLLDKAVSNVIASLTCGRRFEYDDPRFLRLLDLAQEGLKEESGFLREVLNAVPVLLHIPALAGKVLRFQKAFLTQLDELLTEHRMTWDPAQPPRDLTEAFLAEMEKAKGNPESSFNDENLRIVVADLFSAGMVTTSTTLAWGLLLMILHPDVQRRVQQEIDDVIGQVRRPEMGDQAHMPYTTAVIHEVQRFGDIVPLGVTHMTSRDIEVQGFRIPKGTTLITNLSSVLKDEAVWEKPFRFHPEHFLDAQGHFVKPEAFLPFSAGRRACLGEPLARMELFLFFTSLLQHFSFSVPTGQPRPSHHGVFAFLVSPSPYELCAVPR
Turning to `CSc1nc(-c2ccc(F)cc2)c(-c2ccnc(OC(C)C)c2)[nH]1`, the inhibition at 10 µM is under 0%.

`CSc1nc(-c2ccc(F)cc2)c(-c2ccnc(NC(C)=O)c2)n1C1CC(C)(C)NC(C)(C)C1`: 10 µM produced 14.6% inhibition.

The target of another data set is CYP2C19 (Homo sapiens, UniProt P33261). Kind of data set: Inhibition of Cytochrome P450 2C19 at 10 uM. It is filed as ADME.
CYP2C19, sequence (P33261 whole entry): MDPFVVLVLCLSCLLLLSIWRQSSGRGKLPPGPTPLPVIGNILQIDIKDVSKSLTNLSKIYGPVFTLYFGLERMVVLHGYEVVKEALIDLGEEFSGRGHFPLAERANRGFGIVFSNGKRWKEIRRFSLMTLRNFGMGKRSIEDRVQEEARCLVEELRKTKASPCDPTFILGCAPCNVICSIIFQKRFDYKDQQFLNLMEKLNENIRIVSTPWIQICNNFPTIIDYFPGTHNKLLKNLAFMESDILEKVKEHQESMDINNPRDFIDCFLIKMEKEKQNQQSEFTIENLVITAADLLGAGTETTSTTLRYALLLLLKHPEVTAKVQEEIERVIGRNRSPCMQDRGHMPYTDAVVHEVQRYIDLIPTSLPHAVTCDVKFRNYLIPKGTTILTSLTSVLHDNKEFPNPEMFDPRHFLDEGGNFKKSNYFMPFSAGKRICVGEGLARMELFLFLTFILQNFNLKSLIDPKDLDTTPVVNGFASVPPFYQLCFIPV
Take `CSc1nc(-c2ccc(F)cc2)c(-c2ccnc(OC(C)C)c2)[nH]1`: the inhibition at 10 µM is 62.6%.

As for `CSc1nc(-c2ccc(F)cc2)c(-c2ccnc(NC(C)=O)c2)n1C1CC(C)(C)NC(C)(C)C1`, testing at 10 µM gave an inhibition of 7.6%.
